How the values were obtained:
Demodex [1] = experiment: Ex vivo treatment of Demodex on epilated lashes, kill time; conditions: lashes immersed in 1-2 drops, time to cessation of all movement for minimum 60 seconds, examined every four hours
Experimental: Epilated lashes from an individual with confirmed Demodex infection were mounted onto six slides and covered with a coverslip. The lashes were then immersed in 1-2 drops of treatment solution (50 mg/mL 5-FU, 5 mg/mL 5-FU, or balanced salt solution as a control (2 slides each)). The slides were examined under a microscope (at magnifications ranging from 20-40×) every four hours. The kill time was defined as the elapsed time between the addition of test solution and all cessation of movement of the body, legs, mouth and pedipalps for a minimum of 60 seconds. The kill time for Demodex-infested lashes immersed in 5 mg/mL of 5-FU, 50 mg/mL of 5-FU, and control were 32 hours, 44 hours, and 72 hours, respectively.

Demodex [2] = experiment: Clinical treatment of Demodex blepharitis with topical 5-FU 1%; type: in vivo, human
Experimental: The diagnosis of ocular demodicosis was based on clinical examination and confirmed by lash sampling and identification of microscopic mites. Lashes with cylindrical dandruff (CD), (scales that form clear cuffs collaring the lash root) were specifically selected for epilation. External slit lamp photos of both eyes of each individual were taken prior to and after initiation of 5-FU treatment. […] Patients were treated with 5-FU in a cyclical fashion (one week of topical 5-FU 1% application 4 times per day in the affected eye(s) followed by a 3-week holiday comprised one cycle).

Demodex [3] = experiment: Clinical treatment of Demodex infestation with topical mitomycin C; type: in vivo, human; conditions: patient with conjunctival melanoma and heavy Demodex infestation, after 2 cycles

Row | Compound | kill time (Demodex [1]; 5 mg/mL 5-FU) [h] | kill time (Demodex [1]; 50 mg/mL 5-FU) [h] | CDs (cylindrical dandruff) and inflammation (Demodex [2]; one individual with bilateral 5-FU treatment, both eyes compared to pre-treatment) | collarettes and lid inflammation by clinical examination (Demodex [2]; topical 5-FU 1% 4 times per day one week, 3-week holiday per cycle, at least 2 cycles, treated eyes compared to untreated eye) | lash collarettes (Demodex [3])
1 | O=c1[nH]cc(F)c(=O)[nH]1 [5-FU, 5-fluorouracil] | 32 | 44 | reduction in CDs and inflammation | reduction in collarettes and lid inflammation | 
2 | CO[C@@]12[C@H](COC(N)=O)C3=C(C(=O)C(C)=C(N)C3=O)N1C[C@@H]1N[C@@H]12 [mitomycin C] |  |  |  |  | dramatic reduction in lash collarettes
